Test results from patent publication US20030022821A1, “Bioactive peptides” (priority 1998, published 2003).
In brackets after ≈: the same amount, converted by molar mass. Like-named read-outs stand apart in the source and are kept apart here.

Key:
[1] = test system: human promyelotic leukemia cell line HL 60; assay: Cytotoxicity on HL 60 cells, MTT; type: cell-based
[2] = test system: Meth A cells (murine sarcoma cell line); assay: Cytotoxicity on Meth A cells, MTT method
How it was run: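 Meth A cells in RPMI with 10% FBS exposed to peptides (final e.g. […]) for 4 h, then MTT added for 2 h; formazan dissolved in acid isopropanol and absorbance read at 590 nm. Medium alone and 1% Triton X-100 defined 0% and 100% killing.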

[3] = test system: human red blood cells; assay: Hemolytic assay; type: cell-based; conditions: red cells of human
[4] = test system: Escherichia coli ATCC 25922; type: cell-based
How it was run: (§1)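 Mid-logarithmic cultures (raised in 2% peptone water) were diluted to 2×10^6 CFU/ml and exposed to peptide dilutions in 1% Bacto Peptone water by microdilution to find the MIC. Triplicate assays; HPLC checked actual peptide concentration.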

[5] = test system: Staphylococcus aureus ATCC 25923; type: cell-based
How it was run: as §1

[6] = test system: Meth A tumors; assay: Tumor regression, murine Meth A fibrosarcoma; type: in vivo, mice; conditions: for regression of Meth A tumors: injected intratumorally, treatment on day 7 and 10
Method: Specific pathogen-free CB6F1 (Balb/c×C57 BL/6) female mice of about 8 weeks of age were obtained from Charles River (Germany). The mice were kept on standard laboratory chow and water. Tumor bearing mice were serologically screened for viral (LDH, CMV) and mycoplasmic infection and in all cases tested negative.
After a single inoculation of 5×10^7 viable Meth A cells, different LF peptides were injected intratumorally (LFB-14-31, LFB 17-31 Pmc, 500 μg in a 50 μl dose; LFB 17-31, 1000 μg in a 50 μl dose), on day 7 and day 10. LFB 14-31 was also injected intraperitoneally (PBI), 500 μg/ml. Saline only was injected in the control mice (50 μl) (K1,K2,K3). The tumor diameter (mean of transversal and longitudinal) were measured with an electronic calipper.

[7] = type: physicochemical
From the text: Peptide W3714, with three additional tryptophan residues (a total of five tryptophan residues in the peptide), has decreased activity. […] This has been physically observed during MIC testing procedures when the peptide tended to precipitate at high concentrations.

[8] = at the concentration tested, 4 hours

## CSCC[C@H](NC(=O)[C@H](CCCNC(=N)N)NC(=O)[C@H](Cc1c[nH]c2ccccc12)NC(=O)[C@H](CCC(N)=O)NC(=O)[C@H](Cc1c[nH]c2ccccc12)NC(=O)[C@H](CCCNC(=N)N)NC(=O)[C@H](CCCNC(=N)N)NC(=O)[C@H](CSCNC(C)=O)NC(=O)[C@H](CCCCN)NC(=O)[C@H](Cc1ccccc1)NC(=O)[C@H](Cc1c[nH]c2ccccc12)NC(=O)[C@H](CCC(=O)O)NC(=O)[C@@H]1CCCN1)C(=O)N[C@@H](CCCCN)C(=O)N[C@@H](CCCCN)C(=O)N[C@@H](CC(C)C)C(=O)NCC(=O)N[C@@H](C)C(=O)O [LFB 14-31]
[1]
  cytotoxic effect on human HL 60 cells: no cytotoxic effect
[2]; Table 7, peptide required to kill 50% of MethA cells
  MethA IC50: no activity
[3]
  EC50: > 404 µM
[4]; ATCC 25922
  MIC E. coli: 70 µg/mL (≈ 28.2 µM)
  MIC E. coli ATCC 25922: 70 µg/mL
[4]; Table 1, value in brackets
  MIC E. coli ATCC 25922: 28 µM
[5]; ATCC 25923
  MIC S. aureus: >250 µg/mL
  MIC S. aureus ATCC 25923: 200 µg/mL
[5]; Table 1, value in brackets
  MIC S. aureus ATCC 25923: 80 µM
[6]
  regression of Meth A tumors: induced regression of the Meth A tumors
[6]; treated intraperitoneally
  eradication of Meth A tumors: tumors were also eradicated

## CSCC[C@H](NC(=O)[C@H](CCCNC(=N)N)NC(=O)[C@H](Cc1c[nH]c2ccccc12)NC(=O)[C@H](CCC(N)=O)NC(=O)[C@H](Cc1c[nH]c2ccccc12)NC(=O)[C@H](CCCNC(=N)N)NC(=O)[C@H](CCCNC(=N)N)NC(=O)[C@H](CSCNC(C)=O)NC(=O)[C@H](CCCCN)NC(=O)[C@@H](N)Cc1ccccc1)C(=O)N[C@@H](CCCCN)C(=O)N[C@@H](CCCCN)C(=O)N[C@@H](CC(C)C)C(=O)NCC(=O)N[C@@H](C)C(=O)O [LFB 17-31, H2N-Phe-Lys-Cys-Arg-Arg-Trp-Gln-Trp-Arg-Met-Lys-Lys-Leu-Gly-Ala-COOH]
[1]; [8]
  cytotoxic effect on human HL 60 cells: no cytotoxic effect
[2]; 1 mg/ml, 4 hours incubation
  cytotoxic effect on Meth A cells: weak effect
[2]; concentrations up to 1 mg/ml, ½ hour incubation
  cytotoxic effect on Meth A cells: no significant cytotoxic effect
[4]; Table 1, value in brackets
  MIC E. coli ATCC 25922: 20 µM
[4]; Table 3
  MIC E. coli: 50 µg/mL (≈ 24.2 µM)
[4]; Table 4
  MIC E. coli: 50 µg/mL (≈ 24.2 µM)
[4]; Table 6
  MIC E. coli: 50 µg/mL (≈ 24.2 µM)
[5]; Table 1, value in brackets
  MIC S. aureus ATCC 25923: 50 µM
[5]; Table 3, unit assumed
  MIC S. aureus: 100 µg/mL (≈ 48.4 µM)
[5]; Table 4, unit assumed
  MIC S. aureus: 100 µg/mL (≈ 48.4 µM)
[5]; Table 6, unit assumed
  MIC S. aureus: 100 µg/mL (≈ 48.4 µM)
[6]
  regression of Meth A tumors: induced regression of the Meth A tumors

## H-FKWRRWWWRMKKLWA-OH [LFB W3, 7, 14, H2N-Phe-Lys-Trp-Arg-Arg-Trp-Trp-Trp-Arg-Met-Lys-Lys-Leu-Trp-Ala-COOH]
[3]; 10
  % Hemolysis 10 μg/ml: 4.02%
[3]; 100
  % Hemolysis 100 μg/ml: 66.1%
[4]; ATCC 25922
  MIC E. coli: 20 µg/mL
[4]; Table 6
  MIC E. coli: 20 µg/mL
[5]; ATCC 25923
  MIC S. aureus: 20 µg/mL
[5]; Table 6, unit assumed
  MIC S. aureus: 20 µg/mL
[7]
  solubility in aqueous solutions: less soluble in aquous solutions

## CC[C@H](C)[C@H](NC(=O)[C@H](CO)NC(=O)[C@@H]1CCCN1C(=O)[C@H](C)NC(=O)CNC(=O)[C@H](CC(C)C)NC(=O)[C@H](CCCCN)NC(=O)[C@H](CCCCN)NC(=O)[C@H](CCSC)NC(=O)[C@H](CCCNC(=N)N)NC(=O)[C@H](Cc1c[nH]c2ccccc12)NC(=O)[C@H](CCC(N)=O)NC(=O)[C@H](Cc1c[nH]c2ccccc12)NC(=O)[C@H](CCCNC(=N)N)NC(=O)[C@H](CCCNC(=N)N)NC(=O)[C@H](CSCNC(C)=O)NC(=O)[C@H](CCCCN)NC(=O)[C@@H](N)Cc1ccccc1)C(=O)N[C@H](C(=O)N[C@@H](CSCNC(C)=O)C(=O)N[C@H](C(=O)N[C@@H](CCCNC(=N)N)C(=O)N[C@@H](CCCNC(=N)N)C(=O)N[C@@H](C)C(=O)N[C@@H](Cc1ccccc1)C(=O)O)C(C)C)[C@@H](C)O [LFB (17-41), reference compound]
[1]; [8]
  cytotoxic effect on human HL 60 cells: weak concentration dependant cytotoxic effect
[4]; Table 1
  MIC E. coli ATCC 25922: 30 µg/mL
[5]; Table 1
  MIC S. aureus ATCC 25923: 30 µg/mL
